These results are taken from ChEMBL document CHEMBL1201862, “PubChem BioAssay data set” (2004).

Among the test systems are PC-3; NCI/ADR-RES; A498; CAKI-1; 786-0; UO-31; M14; ACHN; SK-OV-3; HOP-92; Hs-578T; DU-145; SR; NCI-H522; UACC-62; MDA-MB-435.
What all share (assay): NCI tumour cell line growth inhibition, 48 h

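Assay format: 96-well plates, 48-hour exposure. Here, GI50 denotes the concentration required for 50% inhibition of growth.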 Active and inactive are the calls of the source. Rule as the data show it: active = GI50 up to about 1.1 µM and inactive = higher. Some results are limits rather than exact numbers.

Consider `C[Si](C)(C)OC1(C#N)c2ccccc2CCCC12CCCC2` (stereo not drawn), for which the GI50 was 41.1 µM (inactive) in the assay with PC-3; 89.5 µM (inactive) with NCI/ADR-RES; 46.6 µM (inactive) with A498; > 100 µM (inactive) with CAKI-1; 54.7 µM (inactive) with 786-0; 99.5 µM (inactive) in the assay with UO-31. Besides, the GI50 in the assay on M14 was 48.3 µM (inactive); in the assay on ACHN, 30.1 µM (inactive); with SK-OV-3 it was > 100 µM (inactive); in the assay with HOP-92 it was 29.1 µM (inactive); in the assay on Hs-578T, 62.1 µM (inactive); with DU-145, 61.1 µM (inactive). For the same compound, the GI50 in the assay on SR is 29.6 µM (inactive); in the assay with NCI-H522, 21.9 µM (inactive); in the assay with UACC-62 it was 80.2 µM (inactive); in the assay with MDA-MB-435 it was 44.1 µM (inactive).

Consider `CC(=O)/N=C1/N(/C=C2\C(=O)Oc3ccccc3C2=O)C(=O)/C(=C/c2ccc(OC(C)=O)cc2)N1C`, for which the GI50 with PC-3 is > 100 µM (inactive); with NCI/ADR-RES, > 100 µM (inactive); in the assay on A498, 9.18 µM (inactive); with CAKI-1 it was > 100 µM (inactive); in the assay on 786-0, > 100 µM (inactive); in the assay on M14, > 100 µM (inactive). The GI50 in the assay with ACHN, in the assay with SK-OV-3, in the assay on Hs-578T, with DU-145, in the assay with SR and in the assay on NCI-H522 was > 100 µM (inactive) throughout. Further, the GI50 in the assay with UACC-62 and in the assay on MDA-MB-435 was > 100 µM (inactive) each time.

Turning to `COc1ccc(N[S+]([O-])c2ccc(-c3ccccc3)cc2)cc1` (stereo not drawn), the GI50 with PC-3 was 22.3 µM (inactive); in the assay with NCI/ADR-RES it was 55 µM (inactive); in the assay with CAKI-1 it was > 100 µM (inactive); in the assay on 786-0, > 10 µM (inactive); in the assay with UO-31, > 100 µM (inactive); in the assay on M14 it was 86.1 µM (inactive). Further, the GI50 in the assay on ACHN was > 100 µM (inactive); with Hs-578T, 0.667 µM (active); with DU-145, > 100 µM (inactive); with SR it was > 100 µM (inactive); in the assay on NCI-H522, > 100 µM (inactive); with MDA-MB-435, > 100 µM (inactive).

In the case of `COC(=O)C1(Cc2ccccc2)Cc2cc3c(cc2C1)CCC3`, the GI50 is 24 µM (inactive) in the assay with PC-3; 35.5 µM (inactive) with NCI/ADR-RES; 35.5 µM (inactive) in the assay with A498; 31.3 µM (inactive) in the assay on 786-0; 24 µM (inactive) in the assay on UO-31; 30.6 µM (inactive) with M14. For the same compound, the GI50 in the assay on ACHN is 30 µM (inactive); with SK-OV-3, 32.3 µM (inactive); in the assay on HOP-92, 11 µM (inactive); in the assay with Hs-578T, 34.4 µM (inactive); in the assay with DU-145, 34.5 µM (inactive); in the assay with SR, 13 µM (inactive). Further, the GI50 in the assay with NCI-H522 was 22.2 µM (inactive); in the assay with UACC-62, 29.8 µM (inactive); in the assay with MDA-MB-435, 12.4 µM (inactive).

Take `CC(=O)OC/C=C\Cn1ncc(=O)[nH]c1=O`: the GI50 with PC-3 is 16 µM (inactive); in the assay on NCI/ADR-RES, 23.1 µM (inactive); in the assay with A498 it was 16.4 µM (inactive); in the assay on UO-31 it was 16.1 µM (inactive); in the assay on M14, 19 µM (inactive); in the assay with ACHN, 21.6 µM (inactive). Moreover, the GI50 is 15.8 µM (inactive) in the assay with HOP-92; 27.7 µM (inactive) in the assay with Hs-578T; 24.2 µM (inactive) in the assay on DU-145; 16.1 µM (inactive) in the assay on NCI-H522; 18.2 µM (inactive) with MDA-MB-435.

Turning to `N=c1c2c(=S)n(-c3ccccc3)c(=S)n(-c3ccccc3)c2nc(SCCCN2CCN(c3cccc(Cl)c3)CC2)n1-c1ccccc1`, the GI50 with PC-3 was 43.9 µM (inactive); in the assay with NCI/ADR-RES, > 100 µM (inactive); in the assay on A498 it was 50.7 µM (inactive); in the assay with CAKI-1, 84.3 µM (inactive); in the assay on ACHN it was > 100 µM (inactive); in the assay with SK-OV-3, > 100 µM (inactive). Besides, the GI50 in the assay on HOP-92 was 42.3 µM (inactive); in the assay on Hs-578T it was > 100 µM (inactive); with DU-145, 52.8 µM (inactive); with SR, > 100 µM (inactive); in the assay with NCI-H522, > 100 µM (inactive); in the assay on UACC-62, 49.2 µM (inactive). Besides, the GI50 with MDA-MB-435 was 73.8 µM (inactive).

Take `CN1C2CCC1CC(C)(O)C2` (stereo not drawn): the GI50 in the assay with PC-3, in the assay on NCI/ADR-RES, in the assay with UO-31, in the assay on M14, with DU-145 and in the assay on SR was > 100 µM (inactive) throughout. Further, the GI50 with MDA-MB-435 was > 100 µM (inactive).

For `CC1(C)CC[C@]2(C)CC[C@]3(C)C(=CC[C@@H]4[C@@]5(C)CCC(=O)C(C)(C)[C@@H]5[C@H](O)C[C@]43C)[C@@H]2C1`, the GI50 with PC-3 was 17.1 µM (inactive); in the assay with NCI/ADR-RES, 19.6 µM (inactive); with A498, 17.3 µM (inactive); in the assay with CAKI-1, 18.3 µM (inactive); in the assay with 786-0, 15.5 µM (inactive); in the assay on M14, 19 µM (inactive). Further, the GI50 was 16.9 µM (inactive) with ACHN; 17.6 µM (inactive) with SK-OV-3; 17.5 µM (inactive) in the assay with HOP-92; 19.5 µM (inactive) in the assay on Hs-578T; 18.2 µM (inactive) in the assay with DU-145; 17 µM (inactive) in the assay with NCI-H522. Also, the GI50 in the assay on UACC-62 was 15.9 µM (inactive); with MDA-MB-435 it was 19.9 µM (inactive).

`COc1cccc(NC(=O)CC(=O)n2nc(-c3ccccc3)c(/N=N/c3ccc(Cl)cc3)c2-c2ccccc2)c1`: the GI50 is 27.9 µM (inactive) in the assay with PC-3; 19.5 µM (inactive) with NCI/ADR-RES; 25.6 µM (inactive) in the assay on A498; 36.6 µM (inactive) in the assay with CAKI-1; 14.4 µM (inactive) in the assay on 786-0; 10.2 µM (inactive) in the assay with UO-31. In addition, the GI50 is 15.2 µM (inactive) in the assay with M14; 19.9 µM (inactive) in the assay with ACHN; 5.33 µM (inactive) with SK-OV-3; 18.7 µM (inactive) in the assay with HOP-92; 26.2 µM (inactive) with Hs-578T; 25.3 µM (inactive) in the assay on DU-145. Moreover, the GI50 was 11 µM (inactive) with SR, 19.4 µM (inactive) in the assay on NCI-H522, 14.2 µM (inactive) in the assay with UACC-62 and 38.7 µM (inactive) with MDA-MB-435.

As for `COC(=O)[C@@H](NC(=O)[C@H](N)Cc1ccc(N(CCCl)CCCl)cc1)C(C)C`, the GI50 with PC-3 is 21.7 µM (inactive); in the assay on NCI/ADR-RES, 12.6 µM (inactive); in the assay on A498 it was 18.7 µM (inactive); in the assay on CAKI-1, 0.481 µM (active); in the assay on 786-0, 8.65 µM (inactive); in the assay with UO-31, 12 µM (inactive). Further, the GI50 in the assay on M14 is 8.17 µM (inactive); in the assay on ACHN, 3.56 µM (inactive); with SK-OV-3, 32.7 µM (inactive); in the assay on HOP-92, 1.63 µM (inactive); in the assay on Hs-578T it was 26.2 µM (inactive); in the assay on DU-145, 8.57 µM (inactive). The GI50 with SR is 0.53 µM (active); in the assay with NCI-H522 it was 5.92 µM (inactive); in the assay with UACC-62, 2.39 µM (inactive); in the assay on MDA-MB-435, 19 µM (inactive).

Consider `COc1ccc(/C=C2\CC3C4CC=C5C[C@@H](O)CC[C@]5(C)C4CC[C@]3(C)\C2=N\O)cc1OC` (stereo partly drawn), for which the GI50 in the assay on PC-3 was 6.03 µM (inactive); in the assay with NCI/ADR-RES, 9.18 µM (inactive); in the assay on A498, 5.4 µM (inactive); in the assay with CAKI-1, 9.62 µM (inactive); with 786-0, 5.71 µM (inactive); with UO-31, 2.65 µM (inactive). In addition, the GI50 is 19.6 µM (inactive) with M14; 3.98 µM (inactive) in the assay on ACHN; 49.3 µM (inactive) in the assay on SK-OV-3; 29.2 µM (inactive) in the assay on HOP-92; 8.77 µM (inactive) in the assay on Hs-578T; 26.1 µM (inactive) in the assay with DU-145. For the same compound, the GI50 with NCI-H522 was 13.9 µM (inactive); in the assay with UACC-62 it was 10.3 µM (inactive); in the assay with MDA-MB-435 it was 23.3 µM (inactive).

Turning to `O=C(c1ccco1)C1CC(c2c(O)ccc3ccccc23)=NN1` (stereo not drawn), the GI50 in the assay with PC-3 is 8.79 µM (inactive); with NCI/ADR-RES, 17.9 µM (inactive); with A498 it was 18.4 µM (inactive); in the assay with CAKI-1, 16.2 µM (inactive); in the assay on UO-31, 11.1 µM (inactive); in the assay on M14, 11.9 µM (inactive). Also, the GI50 is 12.5 µM (inactive) with ACHN; 21 µM (inactive) with SK-OV-3; 13.6 µM (inactive) in the assay on HOP-92; 18.5 µM (inactive) with Hs-578T; 14.1 µM (inactive) in the assay on DU-145; 2.72 µM (inactive) with SR. The GI50 with NCI-H522 was 4.2 µM (inactive); in the assay with UACC-62, 12.6 µM (inactive); in the assay with MDA-MB-435 it was 4.55 µM (inactive).

As to `CC(C)=C1C2CC3(C)CCC2(C)CCC13.CC1=CCC2C3(C)CCC2(C(C)C)C1C3` (stereo not drawn), the GI50 was 39.3 µM (inactive) with PC-3; 18.4 µM (inactive) in the assay on NCI/ADR-RES; 34 µM (inactive) with A498; 17.3 µM (inactive) in the assay with CAKI-1; 21.5 µM (inactive) in the assay on 786-0; 26.7 µM (inactive) in the assay on UO-31. Also, the GI50 with M14 was 20.1 µM (inactive); with ACHN, 20.3 µM (inactive); in the assay with SK-OV-3, > 100 µM (inactive); in the assay with HOP-92, 27.7 µM (inactive); in the assay on Hs-578T, 18.4 µM (inactive); in the assay on DU-145 it was 29.4 µM (inactive). For the same compound, the GI50 in the assay with NCI-H522 is 20.8 µM (inactive); in the assay with UACC-62, 64.1 µM (inactive); in the assay on MDA-MB-435, 28.9 µM (inactive).

On to `CN(N)c1nc(N)c(C#N)c(C#N)c1C#N`, for which the GI50 with PC-3, with NCI/ADR-RES, with CAKI-1, with 786-0, in the assay on M14 and with ACHN was > 10 µM (inactive) each time. Also, the GI50 in the assay with SK-OV-3, with HOP-92, in the assay with Hs-578T, with DU-145, in the assay on SR and in the assay on NCI-H522 was > 10 µM (inactive) in each case. For the same compound, the GI50 with UACC-62 and with MDA-MB-435 was > 10 µM (inactive) each time.
